This note sets out measurements from article PMC3599263 (DARU Journal of Pharmaceutical Sciences, 2013).

Structures are written as SMILES. Where two headings read alike, the source gives them in different places.

In one assay the target is T1, BuChE from equine serum (Equus caballus, UniProt P81908).
T1 construct: BuChE from equine serum; purchased Sigma-Aldrich (Steinheim, Germany); host or cells: equine serum
As to the kind of experiment: biochemical.

Assay [1] addresses AChE (E.C. 3.1.1.7, Type V-S, from electric eel) (Electrophorus electricus, UniProt O42275). In words: biochemical.

T1 sequence (P81908 whole entry): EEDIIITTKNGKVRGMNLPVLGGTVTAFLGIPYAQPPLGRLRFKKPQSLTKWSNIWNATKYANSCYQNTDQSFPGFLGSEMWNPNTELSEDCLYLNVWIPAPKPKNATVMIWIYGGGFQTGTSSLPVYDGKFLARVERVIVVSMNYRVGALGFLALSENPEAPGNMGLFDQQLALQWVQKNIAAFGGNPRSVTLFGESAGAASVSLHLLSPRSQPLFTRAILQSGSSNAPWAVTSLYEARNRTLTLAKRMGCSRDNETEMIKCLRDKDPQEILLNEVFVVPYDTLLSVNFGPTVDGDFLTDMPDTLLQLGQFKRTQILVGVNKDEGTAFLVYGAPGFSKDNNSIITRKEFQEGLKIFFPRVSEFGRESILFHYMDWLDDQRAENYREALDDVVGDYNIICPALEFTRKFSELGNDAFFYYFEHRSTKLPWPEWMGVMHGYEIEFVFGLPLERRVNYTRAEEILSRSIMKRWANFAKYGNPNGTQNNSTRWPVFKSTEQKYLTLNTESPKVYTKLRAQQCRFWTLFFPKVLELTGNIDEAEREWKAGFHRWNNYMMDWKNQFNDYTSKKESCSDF
Chain of AChE (E.C. 3.1.1.7, Type V-S, from electric eel) (O42275 24-633): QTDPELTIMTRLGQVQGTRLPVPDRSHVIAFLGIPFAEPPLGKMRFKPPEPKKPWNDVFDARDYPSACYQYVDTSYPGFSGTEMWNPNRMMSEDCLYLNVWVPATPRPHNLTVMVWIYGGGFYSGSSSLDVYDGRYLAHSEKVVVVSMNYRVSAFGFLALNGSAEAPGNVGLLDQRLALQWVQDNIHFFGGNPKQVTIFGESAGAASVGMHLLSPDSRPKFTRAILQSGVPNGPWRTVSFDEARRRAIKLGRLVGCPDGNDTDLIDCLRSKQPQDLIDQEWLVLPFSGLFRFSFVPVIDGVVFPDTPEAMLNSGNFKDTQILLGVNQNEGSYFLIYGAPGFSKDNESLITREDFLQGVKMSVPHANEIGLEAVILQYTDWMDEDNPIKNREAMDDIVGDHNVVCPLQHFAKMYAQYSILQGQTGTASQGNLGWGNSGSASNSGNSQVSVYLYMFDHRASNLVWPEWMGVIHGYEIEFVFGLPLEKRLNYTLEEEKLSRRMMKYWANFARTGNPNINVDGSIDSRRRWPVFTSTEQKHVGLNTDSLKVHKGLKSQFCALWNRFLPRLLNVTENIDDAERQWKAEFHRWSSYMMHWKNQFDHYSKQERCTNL

As to `COc1cc2c(cc1OC)C(=O)/C(=C/c1cc[n+](Cc3ccccc3)cc1)O2` [5a, (Z)-1-Benzyl-4-((5,6-dimethoxy-3-oxobenzofuran-2(3H)-ylidene)methyl) pyridinium bromide], the IC50 (in general, the concentration that gives 50% inhibition) against BuChE from equine serum is 1400 ± 85 nM; in assay [1], 86 ± 10.9 nM.
Regarding `COc1cc2c(cc1OC)C(=O)/C(=C/c1cc[n+](Cc3ccc(C)cc3)cc1)O2` [5g, (Z)-1-(4-Methylbenzyl)-4-((5,6-dimethoxy-3-oxobenzofuran-2(3H)-ylidene)methyl) pyridinium chloride], the IC50 at BuChE from equine serum (Ellman's method, 25°C, pH 8.0, 15 min pre-incubation, mean ± SD of three independent experiments, read-out: BuChE (IC50 ± SD)) amounted to 7600 ± 260 nM; in assay [1] it was 514 ± 29.5 nM.
